Source: the NIST ThermoML archive (doi:10.1016/j.fluid.2006.03.018)
± gives the expanded uncertainty stated by the source.

What was measured:
[1] = refractive index (Na D-line) (dimensionless); conditions: 298.15 K; 101.33 kPa; Liquid
[2] = for mass density: 298.15 K, 101.33 kPa

In the case of `CC(C)O` [propan-2-ol], the refractive index [1] is reported as 1.3752 ± 0.001, the mass density ([2]; Liquid) is reported as 781.3 ± 2 kg/m3 and the “vapor or sublimation pressure” value ([2]; 353.95 K, Liquid) is reported as 95.23 ± 4.8 kPa. The “vapor or sublimation pressure” value ([2]; 354.05 K, Liquid) was 95.76 ± 4.8 kPa.

In the case of `Cc1ccccc1O` [2-methylphenol], the refractive index [1] is reported as 1.5468 ± 0.001, the mass density ([2]; Liquid) is reported as 1046 ± 2.9 kg/m3 and the “vapor or sublimation pressure” value ([2]; 461.85 K, Liquid) is reported as 95.76 ± 4.8 kPa.

In the case of `CCCO` [propan-1-ol], the refractive index [1] is reported as 1.3837 ± 0.0008, the mass density ([2]; Liquid) is reported as 799.6 ± 2.2 kg/m3 and the “vapor or sublimation pressure” value ([2]; 368.85 K, Liquid) is reported as 95.23 ± 4.8 kPa. For the same compound, the “vapor or sublimation pressure” value ([2]; 368.95 K, Liquid) was 95.76 ± 4.8 kPa.

With `CCCCO` [butan-1-ol] the refractive index [1] was 1.3974 ± 0.001, the mass density ([2]; Liquid) was 805.8 ± 2.1 kg/m3 and the “vapor or sublimation pressure” value ([2]; 389.45 K, Liquid) was 95.76 ± 4.8 kPa. The “vapor or sublimation pressure” value ([2]; 391.55 K, Liquid) was 95.23 ± 4.8 kPa.

In the case of `CCO` [ethanol], the refractive index [1] is reported as 1.3594 ± 0.001, the mass density ([2]; Liquid) is reported as 784.9 ± 2 kg/m3 and the “vapor or sublimation pressure” value ([2]; 349.95 K, Liquid) is reported as 95.23 ± 4.8 kPa. The “vapor or sublimation pressure” value ([2]; 350.05 K, Liquid) was 95.76 ± 4.8 kPa.

For `CO` [methanol], the refractive index [1] was 1.3265 ± 0.001, the mass density ([2]; Liquid) was 786.4 ± 2 kg/m3 and the “vapor or sublimation pressure” value ([2]; 336.15 K, Liquid) was 95.23 ± 4.8 kPa. For the same compound, the “vapor or sublimation pressure” value ([2]; 336.35 K, Liquid) was 95.76 ± 4.8 kPa.

With `CC(C)(C)O` [2-methylpropan-2-ol] the refractive index [1] was 1.3852 ± 0.001, the mass density ([2]; Liquid) was 781.2 ± 2 kg/m3 and the “vapor or sublimation pressure” value ([2]; 354.05 K, Liquid) was 95.23 ± 4.8 kPa. The “vapor or sublimation pressure” value ([2]; 354.15 K, Liquid) was 95.76 ± 4.8 kPa.

With `CCC(C)O` (stereo not drawn) [butan-2-ol] the refractive index [1] was 1.3953 ± 0.001, the mass density ([2]; Liquid) was 802.4 ± 2.1 kg/m3 and the “vapor or sublimation pressure” value ([2]; 371.15 K, Liquid) was 95.23 ± 4.8 kPa. The “vapor or sublimation pressure” value ([2]; 371.35 K, Liquid) was 95.76 ± 4.8 kPa.

In the case of `CC(C)CO` [2-methyl-1-propanol], the refractive index [1] is reported as 1.3939 ± 0.001, the mass density ([2]; Liquid) is reported as 797.8 ± 2 kg/m3 and the “vapor or sublimation pressure” value ([2]; 379.55 K, Liquid) is reported as 95.23 ± 4.8 kPa. The “vapor or sublimation pressure” value ([2]; 379.75 K, Liquid) was 95.76 ± 4.8 kPa.

In the case of `Cc1ccc(O)cc1` [4-methylphenol], the refractive index [1] is reported as 1.539 ± 0.001, the mass density ([2]; Crystal) is reported as 1155 ± 4 kg/m3 and the “vapor or sublimation pressure” value ([2]; 472.85 K, Liquid) is reported as 95.23 ± 4.8 kPa.
